# Laboratory results reported in patent US10143681B2, “Factor XIa inhibitors” (MERCK SHARP & DOHME CORP., priority 2016, dated 2018).
# Experiments:
# human Factor XIa = human Factor XIa (Homo sapiens (Human), UniProt P03951); assay: Factor XIa Assay; type: biochemical; conditions: for IC50: human Factor XIa 0.04 nM, 30 min pre-incubation at 25° C., substrate GPR-AFC, read-out: FXIa IC50; for inhibition at 1 µM: read-out: FXIa % Inh. @ 1000 nM
# Method: The effectiveness of a compound of the present invention as an inhibitor of Coagulation Factor XIa can be determined using a relevant purified serine protease, and an appropriate synthetic substrate. The rate of hydrolysis of the chromogenic or fluorogenic substrate by the relevant serine protease was measured both in the absence and presence of compounds of the present invention. Assays were conducted at room temperature or at 37° C. […] A decrease in the rate of fluorescence change in the presence of inhibitor is indicative of enzyme inhibition. Such methods are known to one skilled in the art. The results of this assay are expressed as the half-maximal inhibitory concentrations (IC50), or the inhibitory constant, Ki.
# Compounds were pre-incubated for 30 minutes at 25° C. with human (0.04 nM) Factor XIa in 50 mM HEPES buffer with 150 mM sodium chloride, 5 mM calcium chloride, 0.1% PEG 8000, pH 7.4. Factor XIa enzymatic activity was determined by addition of the substrate glycine-proline-arginine-7-amido-4-trifluoromethylcoumarin (GPR-AFC) and measurement of the fluorescence at 400/505 nm after a 60 minute incubation at 25° C. The % inhibition for each data point was calculated from the data and analyzed using the log (inhibitor) vs. response four parameters equation to determine the half-maximal inhibitory concentrations (IC50). The IC50 were converted to equilibrium inhibitory constants (Ki) using the Cheng-Prusoff equation.
# [1] = system: Human plasma (intrinsic coagulation cascade); assay: Activated Partial Thromboplastin Time (aPTT) Assay; conditions: concentration that causes a 50% (1.5×) increase of clot time over vehicle
# Method: Activated partial thromboplastin time (aPTT) is a clotting test that measures the intrinsic coagulation cascade. The test is performed in sodium citrated plasma. Human plasma is made by collecting blood from healthy donors of both genders into Na citrate tubes (Sarstedt coagulation 9NC/10 ml). Blood is centrifuged at 1500×g and the plasma is collected. aPTT is checked on each individual donor and those within the normal range (28-40 seconds) are pooled, aliquoted, and stored at −80 C. Test samples are prepared by spiking inhibitors or vehicle into plasma. These spiked samples are then run on a coagulation analyzer (STA-R Evolution, Stago Diagnostica). In general, the analyzer performs the following steps: Factor XII is activated by addition of ellagic acid (Pacific Hemostasis), and then time to clot is measured after re-calcification of the sample. Inhibition of FXI will cause aPTT clot time to be prolonged. The data is expressed as percent increase over vehicle control clot time and the concentration that causes a 50% (1.5×) percent increase of clot time are reported.
# Chain of human Factor XIa (P03951 388-625): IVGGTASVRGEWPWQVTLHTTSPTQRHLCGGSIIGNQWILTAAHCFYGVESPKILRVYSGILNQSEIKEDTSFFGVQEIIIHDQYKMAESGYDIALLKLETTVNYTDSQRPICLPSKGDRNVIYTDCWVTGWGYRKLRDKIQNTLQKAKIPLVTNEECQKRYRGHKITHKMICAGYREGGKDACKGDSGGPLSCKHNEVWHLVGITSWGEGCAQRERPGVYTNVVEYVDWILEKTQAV
# Chain of human Factor XIa (P03951 19-387 partner): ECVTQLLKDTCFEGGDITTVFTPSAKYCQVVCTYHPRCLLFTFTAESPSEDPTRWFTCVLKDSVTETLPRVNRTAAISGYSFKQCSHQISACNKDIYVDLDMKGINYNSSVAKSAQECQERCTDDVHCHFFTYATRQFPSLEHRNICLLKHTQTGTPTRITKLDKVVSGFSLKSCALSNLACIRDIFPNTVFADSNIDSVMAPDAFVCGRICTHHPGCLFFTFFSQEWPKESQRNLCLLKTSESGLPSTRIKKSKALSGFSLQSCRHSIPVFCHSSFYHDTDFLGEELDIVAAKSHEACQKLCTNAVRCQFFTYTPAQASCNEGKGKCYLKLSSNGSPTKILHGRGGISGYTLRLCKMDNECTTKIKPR
IC50 (human Factor XIa) [nM],inhibition at 1 µM (human Factor XIa; @ 1000 nM compound) [%],FXIa % Inh. @ 1000 nM (human Factor XIa; @ 1000 nM compound) [%],SMILES,aPTT (1.5x) [1] [µM]
293,–,–,"O=C(O)c1ccc(NC(=O)C(CC2CC2)c2ccc(-c3cc(Cl)ccc3C(F)F)c[n+]2[O-])cc1 (single isomer, unassigned) [Example 28, (S)- or (R)-2-(1-((4-carboxyphenyl)amino)-3-cyclopropyl-1-oxopropan-2-yl)-5-(5-chloro-2-(difluoromethyl)phenyl)pyridine 1-oxide]",>100
39,–,–,"O=C(O)c1ccc(NC(=O)[C@@H](CC2CCC2)c2ccc(-c3c(C(F)F)ccc(Cl)c3F)c[n+]2[O-])cc1 (mixture of isomers) [Example 3, (S)- and (R)-2-(1-((4-Carboxyphenyl)amino)-3-cyclobutyl-1-oxopropan-2-yl)-5-(3-chloro-6-(difluoromethyl)-2-fluorophenyl)pyridine 1-oxide]",>100
24,–,–,"CC(C)Oc1ccc(Cl)c(F)c1-c1ccc(C(CC2CC2)C(=O)Nc2ccc(C(=O)O)cc2)[n+]([O-])c1 (single isomer, unassigned) [Example 17, (R)- or (S)-4-[(2-{5-[3-chloro-2-fluoro-6-(1-methylethoxy)phenyl]-1-oxidopyridin-2-yl}-3-cyclopropylpropanoyl)amino] benzoic acid]",>100
0.38,–,–,"C[C@@H]1C[C@H]1C[C@@H](C(=O)Nc1ccc(C(=O)O)cc1)c1ccc(-c2c(OC(F)F)ccc(Cl)c2F)c[n+]1[O-] (single isomer, unassigned) [Example 56]",1.34
> 1000,30,–,"O=C(O)c1ccc(NC(=O)C(CC2CC2)c2ccc(-c3cc(Cl)ccc3OC(F)F)c[n+]2[O-])cc1 (single isomer, unassigned) [Example 6, (S)- or (R)-4-[(2-{5-[5-chloro-2-(difluoromethoxy)phenyl]-1-oxidopyridin-2-yl}-3-cyclopropylpropanoyl)amino] benzoic acid]",>100
–,–,–,"O=C(O)c1ccc(NC(=O)[C@@H](CC2CC2)c2ccc(-c3c(C(F)F)ccc(Cl)c3F)c[n+]2[O-])cc1 (mixture of isomers) [Example 23, (S)- and (R)-2-(1-((4-carboxyphenyl)amino)-3-cyclopropyl-1-oxopropan-2-yl)-5-(3-chloro-6-(difluoromethyl)-2-fluorophenyl)pyridine 1-oxide]",0.61
–,–,–,"O=C(O)c1ccc(NC(=O)[C@@H](CC2CCC2)c2ccc(-c3c(C(F)F)ccc(Cl)c3F)c[n+]2[O-])cc1 (mixture of isomers) [Example 4, (S)- and (R)-2-(1-((4-Carboxyphenyl)amino)-3-cyclobutyl-1-oxopropan-2-yl)-5-(3-chloro-6-(difluoromethyl)-2-fluorophenyl)pyridine 1-oxide]",0.55
0.61,–,–,"CC1CCC1CC(C(=O)Nc1ccc(C(=O)O)cc1)c1ccc(-c2c(OC(F)F)ccc(Cl)c2F)c[n+]1[O-] (single isomer, unassigned) [Example 105, 2-(1-((4-carboxyphenyl)amino)-3-(2-methylcyclobutyl)-1-oxopropan-2-yl)-5-(3-chloro-6-(difluoromethoxy)-2-fluorophenyl)pyridine 1-oxide]",1.13
–,–,–,"CC1(O)CC(CC(C(=O)Nc2ccc(C(=O)O)cc2)c2ccc(-c3c(C(F)F)ccc(Cl)c3F)c[n+]2[O-])C1 (single isomer, unassigned) [Example 85, 2-(1-((4-carboxyphenyl)amino)-3-(3-hydroxy-3-methylcyclobutyl)-1-oxopropan-2-yl)-5-(3-chloro-6-(difluoromethyl)-2-fluorophenyl)pyridine 1-oxide]",1
–,–,–,"O=C(O)c1ccc(NC(=O)C(CC2CC2F)c2ccc(-c3c(C(F)F)ccc(Cl)c3F)c[n+]2[O-])cc1 (single isomer, unassigned) [Example 92, 2-(1-((4-carboxyphenyl)amino)-3-(2-fluorocyclopropyl)-1-oxopropan-2-yl)-5-(3-chloro-6-(difluoromethyl)-2-fluorophenyl)pyridine 1-oxide]",100
3.79,–,–,"CC1CCC1CC(C(=O)Nc1ccc(C(=O)O)cc1)c1ccc(-c2c(OC(F)F)ccc(Cl)c2F)c[n+]1[O-] (single isomer, unassigned) [Example 106, 2-(1-((4-carboxyphenyl)amino)-3-(2-methylcyclobutyl)-1-oxopropan-2-yl)-5-(3-chloro-6-(difluoromethoxy)-2-fluorophenyl)pyridine 1-oxide]",–
> 1000,33,–,"CC(C)Oc1ccc(Cl)c(F)c1-c1ccc(C(CC2CC2)C(=O)Nc2ccc(C(=O)O)cc2)[n+]([O-])c1 (single isomer, unassigned) [Example 16, (S)- or (R)-4-[(2-{5-[3-chloro-2-fluoro-6-(1-methylethoxy)phenyl]-1-oxidopyridin-2-yl}-3-cyclopropylpropanoyl)amino] benzoic acid]",>100
–,–,–,"COc1cc(C(CC2CC2)C(=O)Nc2ccc(C(=O)O)cc2)[n+]([O-])cc1-c1c(C(F)F)ccc(Cl)c1F [Example 69, (S)- and (R)-2-(1-((4-carboxyphenyl)amino)-3-cyclopropyl-1-oxopropan-2-yl)-5-(3-chloro-6-(difluoromethyl)-2-fluorophenyl)-4-methoxypyridine 1-oxide]",1.92
1000,–,6,"COC(=O)c1ccc(NC(=O)C(CC2CC2)c2ccc(-c3c(C(F)F)ccc(Cl)c3F)c[n+]2[O-])cc1 (single isomer, unassigned) [Example 113, 5-(3-chloro-6-(difluoromethyl)-2-fluorophenyl)-2-(3-cyclopropyl-1-((4-(methoxycarbonyl)phenyl)amino)-1-oxopropan-2-yl)pyridine 1-oxide]",–
> 1000,39,–,"O=C(O)c1ccc(NC(=O)C(CC2CC2)c2ccc(-c3c(C(F)(F)F)ccc(Cl)c3F)c[n+]2[O-])cc1 (single isomer, unassigned) [Example 26, (S)- or (R)-2-(1-((4-carboxyphenyl)amino)-3-cyclopropyl-1-oxopropan-2-yl)-5-(3-chloro-2-fluoro-6-(trifluoromethyl)phenyl)pyridine 1-oxide]",–
–,–,–,"CC1(O)CC(CC(C(=O)Nc2ccc(C(=O)O)cc2)c2ccc(-c3c(C(F)F)ccc(Cl)c3F)c[n+]2[O-])C1 (single isomer, unassigned) [Example 83, 2-(1-((4-carboxyphenyl)amino)-3-(3-hydroxy-3-methylcyclobutyl)-1-oxopropan-2-yl)-5-(3-chloro-6-(difluoromethyl)-2-fluorophenyl)pyridine 1-oxide]",0.62
62,–,–,"CC(C1CC1)C(C(=O)Nc1ccc(C(=O)O)cc1)c1ccc(-c2c(OC(F)F)ccc(Cl)c2F)c[n+]1[O-] (single isomer, unassigned) [Example 60, 2-(1-((4-carboxyphenyl)amino)-3-cyclopropyl-1-oxobutan-2-yl)-5-(3-chloro-6-(difluoromethoxy)-2-fluorophenyl)pyridine 1-oxide]",–

SMILES,IC50 (human Factor XIa) [nM],inhibition at 1 µM (human Factor XIa; @ 1000 nM compound) [%],FXIa % Inh. @ 1000 nM (human Factor XIa; @ 1000 nM compound) [%],aPTT (1.5x) [1] [µM]
"O=C(O)c1ccc(NC(=O)[C@@H](CC2CC2)c2ccc(-c3c(C(F)F)ccc(Cl)c3F)c[n+]2[O-])cc1 (mixture of isomers) [Example 22, (S)- and (R)-2-(1-((4-carboxyphenyl)amino)-3-cyclopropyl-1-oxopropan-2-yl)-5-(3-chloro-6-(difluoromethyl)-2-fluorophenyl)pyridine 1-oxide]",240,–,–,–
